According to the NIST ThermoML archive (doi:10.1016/j.jct.2006.01.016):
± gives the expanded uncertainty stated by the source.

What was measured:
[1] = xn = mol fraction of the nth substance listed; details: 101 kPa, Liquid
[2] = 101 kPa, Liquid

CCCCn1cc[n+](C)c1.F[B-](F)(F)F [1-butyl-3-methylimidazolium tetrafluoroborate] + CO
[1]
Details	mass density, 298.15 K [kg/m3]	mass density, 303.15 K [kg/m3]	mass density, 308.15 K [kg/m3]	mass density, 313.15 K [kg/m3]	mass density, 318.15 K [kg/m3]	speed of sound, 298.15 K [m/s]	speed of sound, 303.15 K [m/s]	speed of sound, 308.15 K [m/s]	speed of sound, 313.15 K [m/s]	speed of sound, 318.15 K [m/s]
x1 = 0.0086	805.151 ± 2.2	800.482 ± 2.3	795.796 ± 2.3	791.081 ± 2.3	786.347 ± 2.4	–	1105.3 ± 9.3	1089.3 ± 9.2	1073.5 ± 9.1	1057.8 ± 9
x1 = 0.0473	871.093 ± 1.7	866.582 ± 1.7	862.063 ± 1.8	857.529 ± 1.8	852.979 ± 1.8	–	1162.4 ± 9.7	1147.8 ± 9.6	1133.1 ± 9.5	1118.6 ± 9.4
x1 = 0.0989	935.734 ± 1.2	931.386 ± 1.2	927.032 ± 1.3	922.668 ± 1.3	918.304 ± 1.3	–	1224.6 ± 10	1211 ± 10	1197.5 ± 9.9	1184 ± 9.8
x1 = 0.2027	1020.75 ± 0.88	1016.6 ± 0.84	1012.46 ± 0.81	1008.33 ± 0.78	1004.19 ± 0.76	–	1321.8 ± 11	1309.2 ± 11	1296.5 ± 11	1284 ± 10
x1 = 0.3516	1090.69 ± 1.6	1086.81 ± 1.5	1082.62 ± 1.5	1079.1 ± 1.5	1075.21 ± 1.4	1423.6 ± 11	1411.3 ± 11	1399.1 ± 11	–	1375 ± 11
x1 = 0.4958	1131.97 ± 2.1	1128.15 ± 2	1124.35 ± 2	1120.99 ± 2	1117.11 ± 1.9	1477 ± 12	1465 ± 12	1453.1 ± 12	1441.8 ± 11	1430.1 ± 11
x1 = 0.6961	1168.33 ± 2.7	1164.63 ± 2.7	1160.96 ± 2.6	1157.3 ± 2.6	1153.66 ± 2.6	1524.1 ± 12	1512.2 ± 12	1500.4 ± 12	1488.8 ± 12	1477.2 ± 12
x1 = 0.7982	1181.54 ± 3	1177.91 ± 3	1174.28 ± 3	1170.67 ± 2.9	1167.07 ± 2.9	1541.2 ± 12	1529.5 ± 12	1517.9 ± 12	1506.3 ± 12	1494.8 ± 12
x1 = 1	1201.42 ± 3.8	1197.88 ± 3.7	1194.35 ± 3.7	1190.82 ± 3.7	1187.29 ± 3.6	1576 ± 12	1555.5 ± 12	1543.9 ± 12	1532.5 ± 12	1521.2 ± 12

CC#N [acetonitrile]
[2]
Details	mass density [kg/m3]	speed of sound [m/s]
298.15 K	776.533 ± 2.4	1278.6 ± 10
303.15 K	771.116 ± 2.5	1258.7 ± 10
308.15 K	765.66 ± 2.5	1238.7 ± 10
313.15 K	760.162 ± 2.6	1218.5 ± 10
318.15 K	754.462 ± 2.6	1198.3 ± 9.9

CC#N [acetonitrile] + CCCCn1cc[n+](C)c1.F[B-](F)(F)F
[1], x2 = 0
Details	mass density [kg/m3]	speed of sound [m/s]
298.15 K	776.533 ± 2.4	1278.6 ± 10
303.15 K	771.116 ± 2.5	1258.7 ± 10
308.15 K	765.66 ± 2.5	1238.7 ± 10
313.15 K	760.162 ± 2.6	1218.5 ± 10
318.15 K	754.462 ± 2.6	1198.3 ± 9.9

CO [methanol]
[2]
Details	mass density [kg/m3]	speed of sound [m/s]
298.15 K	786.531 ± 2.4	–
303.15 K	781.808 ± 2.4	1086.4 ± 9.2
308.15 K	777.066 ± 2.4	1070.1 ± 9.1
313.15 K	772.283 ± 2.5	1054 ± 9
318.15 K	767.474 ± 2.5	1037.9 ± 8.9

CO [methanol] + CCCCn1cc[n+](C)c1.F[B-](F)(F)F
[1], x2 = 0
Details	mass density [kg/m3]	speed of sound [m/s]
298.15 K	786.531 ± 2.4	–
303.15 K	781.808 ± 2.4	1086.4 ± 9.2
308.15 K	777.066 ± 2.4	1070.1 ± 9.1
313.15 K	772.283 ± 2.5	1054 ± 9
318.15 K	767.474 ± 2.5	1037.9 ± 8.9
